Assay results: US8598132B2, “Glycosylated indolocarbazoles, method for obtaining same and uses thereof” (Universidad de Oviedo, priority 2008, dated 2013)

Target: T1, AurA (Homo sapiens, UniProt O14965)
T1 construct: purchased Carna Biosciences
T1 sequence (O14965 1-403): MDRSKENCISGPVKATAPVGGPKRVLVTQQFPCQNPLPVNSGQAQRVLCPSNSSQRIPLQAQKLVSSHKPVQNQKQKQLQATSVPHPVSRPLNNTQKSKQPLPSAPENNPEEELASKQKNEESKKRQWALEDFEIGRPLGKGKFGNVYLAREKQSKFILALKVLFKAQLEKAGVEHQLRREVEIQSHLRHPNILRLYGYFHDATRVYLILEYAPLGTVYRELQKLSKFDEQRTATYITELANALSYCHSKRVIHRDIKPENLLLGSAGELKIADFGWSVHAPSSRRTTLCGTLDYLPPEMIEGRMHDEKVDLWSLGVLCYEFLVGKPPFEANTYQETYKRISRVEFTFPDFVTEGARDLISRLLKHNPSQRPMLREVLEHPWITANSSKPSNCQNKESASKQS
Assay: LabChip (Caliper) kinase assay, AurA
Format: biochemical
Settings: for inhibition at 0.01 µM: compound at 10 nM; for inhibition at 0.01 µM / inhibition at 0.1 µM: read-out: remaining kinase activity (in %) / percentage of inhibition; for inhibition at 0.1 µM: compound at 100 nM; for IC50: ATP at Km, read-out: CI50 (the source's name)
Description: The analysis of kinase activity described here was performed using LabChip (Caliper Life Sciences), specifically the Caliper LC3000 and the EZ Reader II instruments.
The kinase assay used measures the conversion of a fluorescent peptide (substrate) to a phosphorylated product. The reaction mixture, in a microplate well, is introduced by a capillary in a chip where the non-phosphorylated substrate and the phosphorylated product are separated by […]. The intensity of the fluorescent signal over time is related to the reaction progress. The phosphorylated product migrates quicker than the non-phosphorylated substrate and the signals of the two forms of the peptide appear as differentiated peaks. The Caliper determines the peak height and calculates the ratio of product to the peak sum (P/(P+S)). This value is used to compare wells with compounds and wells with controls and thus determine the % of inhibition for the given product.
The followings kinases were used for the enzymatic inhibition studies, between brackets the value of the Michaelis-Menten constant, Km, of the ATP (Adenosine triphosphate) for each kinase, in μM: obtained from Carna Biosciences: MAPKAPK2 (4.6), AurA (3.6), AurB (5), PKCζ (3.8), RSK1 (23.3), PRAK (5), Erk1 (33.4), PKD2 (32.1), CK1d (16.3), CHK1 (33), ABL (61.7), FYN (36), LYNa (17), CHK2 (57.8), MET (79.5), LCK (28.5), SRC (38), GSK3β (7.3), Erk2 (62.1), PKACα (1.7), AKT2 (186.1), INSR (871.8), p38a (396.5), AKT1(48), MSK1 (21.2), PKCβ2 (84.8), ROCK2 (3.3), PIM2 (4.9), AMPK (38.6), KDR (164.8), IRAK4 (196.5), SGK1 (121.8), SYK (33.5); obtained from Invitrogen: CDK2 (57.6), BTK (123), HGK (80); obtained from Upstate: MST2 (36.6), PKGα (16), PAK2 (1.9), IGF1R (320), FGFR1 (171), MARK1 (33), CAMK2δ (22.4), c-TAK1 (66), DYRK1a (18.1), CaMK4 (3.9), FLT3 (350), c-Raf (6.2), P70S6K (95).
The compounds were dissolved in 100% DMSO and were diluted at 25 times the final concentration desired for the assay. In the case of the determination of Cl50, serial dilutions were made to reach eight concentrations and give rise to the inhibition curve. 1 μL of each concentration is transferred, in duplicate to a 384-well microplate. 12 μL of enzymatic buffer is added to each well containing purified kinase (several suppliers as indicated above), 100 mM HEPES, pH 7.5, 1 mM DTT (Calbiochem), 0.002% Brij-35 (Sigma) and also in presence of 10 mM MgCl2 as cofactor, except for INSR and IRAK4 wherein 10 mM MnCl2 is used instead of MgCl2. For the kinases CAMK26 and CAMK4, 1 mM CaCl2 and 6.7 μg/mL of calmodulin are also added. For KDR kinase, 0.05% of the CHAPSO detergent is added. For the c-Raf kinase, 10 mM MnCl2 is added. For PKCβ2 0.02 μg/mL of PS/PMA is added. For PKGα se 10 μM of cGMP (cyclic guanosine monophosphate) is added. The compound and the enzyme are left for 15 minutes preincubation and, then, the following are added to each well: 12 μL of peptide buffer/ATP containing 100 mM HEPES, pH 7.5, 1.5 μM peptide marker with fluorescein (specific for the corresponding kinase), ATP (at concentration KM), and 0.002% Brij-35 to start the reaction. Generally, the reactions are incubated for 1-1.5 h at ambient temperature to obtain an adequate conversion (15-40%) of the peptide to the phosphorylated product. The reactions were ended by the addition of 45 μL of buffer containing 0 mM EDTA. The microplates were read by the LabChip 3000 using a 12-channel LabChip. The P/(P+S) values were obtained as described above and the CI50 curves were generated using XIfit.
Table 9a has the 0150 data obtained in pairs of compound-kinase selected from the compounds of formula (VII), (VIII), (IX), (XVI), (XVII) and (XVIII) after taking inhibition measurements at 100 nM and 10 nM. Those couples that provide >70% of inhibition at 10 nM were consider for measuring its IC50. […]

Row | Compound | inhibition at 0.01 µM | inhibition at 0.1 µM | IC50
1 | C[C@@H]1O[C@@H](n2c3ccccc3c3c4c(c5c6ccccc6[nH]c5c32)C(=O)NC4=O)[C@H](O)[C@H](O)[C@H]1O [formula (III), N^13-1′-β-L-rhamnosylarcyriaflavin] | 0% | 5% | –
2 | C[C@@H]1O[C@@H](n2c3ccccc3c3c4c(c5c6ccccc6[nH]c5c32)C(=O)NC4=O)C[C@H](O)[C@H]1O [formula (IV), N^13-1′-β-L-olivosylarcyriaflavin] | 4% | 19% | –
3 | C[C@]12O[C@H](C[C@@H](O)[C@H]1O)n1c3ccccc3c3c4c(c5c6ccccc6n2c5c31)C(=O)NC4=O [formula (IX), N^12-5′(S)-N^13-1′-(R)-L-digitoxosylarcyriaflavin] | – | – | 6.7 nM
4 | C[C@@H]1O[C@@H](n2c3ccccc3c3c4c(c5c6ccccc6[nH]c5c32)C(=O)NC4=O)C[C@@H](O)[C@H]1O [formula (V), N^13-1′-β-L-digitoxosylarcyriaflavin] | 4% | 22% | –
5 | C[C@H]1O[C@@H](n2c3ccccc3c3c4c(c5c6ccccc6[nH]c5c32)C(=O)NC4=O)C[C@@H](O)[C@@H]1O [formula (VI), N^13-1′-β-D-olivosylarcyriaflavin] | 3% | 13% | –
6 | C[C@]12O[C@H]([C@H](O)[C@H](O)[C@H]1O)n1c3ccccc3c3c4c(c5c6ccccc6n2c5c31)C(=O)NC4=O [formula (VII), N^12-5′(S)-N^13-1′-(R)-L-rhamnosylarcyriaflavin] | – | – | > 10 nM
7 | C[C@]12O[C@H](C[C@H](O)[C@H]1O)n1c3ccccc3c3c4c(c5c6ccccc6n2c5c31)C(=O)NC4=O [formula (VIII), N^12-5′(S)-N^13-1′-(R)-L-olivosylarcyriaflavin] | – | – | > 10 nM
8 | C[C@@H]1O[C@@H](n2c3ccccc3c3c4c(c5c6ccccc6[nH]c5c32)CNC4=O)[C@H](O)[C@H](O)[C@H]1O [formula (XII), N^13-1′-β-L-rhamnosyl-k252c] | 2% | 3% | –
9 | C[C@@H]1O[C@@H](n2c3ccccc3c3c4c(c5c6ccccc6[nH]c5c32)CNC4=O)C[C@H](O)[C@H]1O [formula (XIII), N^13-1′-β-L-olivosyl-k252c] | 2% | 24% | –
10 | C[C@@H]1O[C@@H](n2c3ccccc3c3c4c(c5c6ccccc6[nH]c5c32)CNC4=O)C[C@@H](O)[C@H]1O [formula (XIV), N^13-1′-β-L-digitoxosyl-k252c] | 1% | 5% | –
11 | C[C@H]1O[C@@H](n2c3ccccc3c3c4c(c5c6ccccc6[nH]c5c32)CNC4=O)C[C@@H](O)[C@@H]1O [formula (XV), N^13-1′-β-D-olivosyl-k252c] | 3% | 20% | –
12 | C[C@]12O[C@H](C[C@H](O)[C@H]1O)n1c3ccccc3c3c4c(c5c6ccccc6n2c5c31)CNC4=O [formula (XVII), N^12-5′(S)-N^13-1′-(R)-L-olivosyl-k252c] | – | – | 5 nM
13 | C[C@]12O[C@H](C[C@@H](O)[C@H]1O)n1c3ccccc3c3c4c(c5c6ccccc6n2c5c31)CNC4=O [formula (XVIII), N^12-5′(S)-N^13-1′-(R)-L-digitoxosyl-k252c] | – | – | > 10 nM
